Data from patent publication US20060193895A1, “Additive for food and beverage, pharmaceutical composition, GLUT4 translocator, and method for translocating GLUT4” (Use-Techno Corporation, priority 2005, published 2006).

Legend:
Type in all cases: in vivo
KK-Ay mice [1] = assay: Blood sugar level in KK-Ay mouse with administration of corosolic acid; settings: oral administration
Description: KK-Ay mice (CLEA JAPAN, INC.) which are the model animals for Type II diabetes were employed for test animals. These KK-Ay mice aged 6 to 10 weeks, having 300 mg/dL of blood sugar level. Corosolic acid which was extracted from Banaba leaves and purified was forcefully administrated to these KK-Ay mice using an injection syringe and an oral sound for mouse. Blood samples were collected at 2, 4 and 7 hours after the administration using the orbital vein blood sampling method, and the blood sugar levels were determined by the glucose oxidase method. Blood sugar levels were measured on four KK-Ay mice. The measured values were used to calculate an average, which was evaluated by the Student's t-test. […] FIG. 1 describes the blood sugar level data as average value± standard error. The p-value of 0.05 or below in the Student's t-test was rated to be significant (the significance is shown with * mark in the Figure: the same is applied hereinafter).

KK-Ay mice [2] = assay: Serum insulin value in KK-Ay mouse with administration of corosolic acid; settings: after 4 hours from the administration, vs group without corosolic acid
Description: On the KK-Ay mouse groups with or without corosolic acid administrated in “Blood sugar level in KK-Ay mouse by administration of corosolic acid” described above, the serum insulin values were measured after 4 hours from the administration. The serum insulin values were measured by the enzyme 2-antibody method. The measured data were rated by the Student's t-test to determine whether or not they had significant differences according to the same criterion as above.

[3] = system: glucose transporter type 4 (GLUT4); assay: Effect of corosolic acid on GLUT4 in mouse skeletal muscle (western blotting of PM and LDM fractions); settings: KK-Ay mice, after 4 hours from the administration
Description: The intake of sugar into cells is conducted by a carrier protein in the transporting system on cell membrane, called glucose transporter (GLUT). Muscle has glucose transporter type 1 (GLUT1) and glucose transporter type 4 (GLUT4). […] This change in location within a cell is called GLUT4 translocation. It is speculated that significant increase of glucose in muscle and fat tissues is mainly due to the translocation of GLUT4. In view of this point, the effect of corosolic acid on GLUT4 was studied. First, the low density microsome (LDM) fraction and the plasma membrane (PM) fraction were prepared using the sucrose concentration gradient in accordance with the method of Klip et al. (FEBS Lett., 224, 224-230 (1987), Biochem. Biophys. Res. Commum., 172, 728-736 (1990)). On the KK-Ay mouse groups with or without corosolic acid administrated, the relative quantities of GLUT4 in the PM fraction and the LDM fraction were determined after 4 hours from the administration using the western blotting analysis.

ddY mice = assay: Blood sugar level of ddY mouse by administration of corosolic acid; settings: ddY normal mice, oral administration, 2, 4, and 7 hours after the administration
Description: KK-Ay mice (CLEA JAPAN, INC.) which are the model animals for Type II diabetes were employed for test animals. These KK-Ay mice aged 6 to 10 weeks, having 300 mg/dL of blood sugar level. Corosolic acid which was extracted from Banaba leaves and purified was forcefully administrated to these KK-Ay mice using an injection syringe and an oral sound for mouse. Blood samples were collected at 2, 4 and 7 hours after the administration using the orbital vein blood sampling method, and the blood sugar levels were determined by the glucose oxidase method. Blood sugar levels were measured on four KK-Ay mice. The measured values were used to calculate an average, which was evaluated by the Student's t-test. […] FIG. 1 describes the blood sugar level data as average value± standard error. The p-value of 0.05 or below in the Student's t-test was rated to be significant (the significance is shown with * mark in the Figure: the same is applied hereinafter). Blood sugar level was determined by the same procedure as described in the above “Blood sugar level in KK-Ay mouse by administration of corosolic acid”, except that the ddY mice which are the normal mice (Japan SLC, Inc.) were employed instead of the KK-Ay mice which are the model animals for Type II diabetes.

SMILES: C[C@H]1[C@H](C)CC[C@]2(C(=O)O)CC[C@]3(C)C(=CC[C@@H]4[C@@]5(C)C[C@@H](O)[C@H](O)C(C)(C)[C@@H]5CC[C@]43C)[C@H]12 [corosolic acid]
- blood sugar level (KK-Ay mice [1]; after 4 hours from the administration): about 280 mg/dL
- change in blood sugar level (KK-Ay mice [1]; during 4 hours after the administration, vs control, Student's t-test): significantly decreases
- serum insulin value (KK-Ay mice [2]): no significant difference
- relative quantity of GLUT4 in the LDM fraction [3]: decreased the GLUT4 of low density microsome
- relative quantity of GLUT4 in the PM fraction [3]: increased it in the plasma membrane fraction
- change in blood sugar level (ddY mice): No significant difference
